Test results: PubChem BioAssay (NCI)
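Results reflect a 48-hour exposure of cells in 96-well plates to compound at five concentrations. At the TGI there is no net growth.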

Key:
Assay in all cases: DTP human tumour cell line panel, 48 h
SK-MEL-5 melanoma = tested on: SK-MEL-5 melanoma
MOLT-4 leukemia = tested on: MOLT-4 leukemia
786-0 renal = tested on: 786-0 renal
A498 renal = tested on: A498 renal
MDA-N = tested on: MDA-N
HT29 colon = tested on: HT29 colon
SNB-19 CNS = tested on: SNB-19 CNS
RPMI-8226 leukemia = tested on: RPMI-8226 leukemia
RXF 393 renal = tested on: RXF 393 renal
PC-3 prostate = tested on: PC-3 prostate
MDA-MB-231 breast = tested on: MDA-MB-231 breast
U251 CNS = tested on: U251 CNS
HCC-2998 colon = tested on: HCC-2998 colon
K-562 leukemia = tested on: K-562 leukemia
SNB-75 CNS = tested on: SNB-75 CNS
HOP-92 NSCLC = tested on: HOP-92 NSCLC
MDA-MB-435 = tested on: MDA-MB-435
MCF7 breast = tested on: MCF7 breast
UO-31 renal = tested on: UO-31 renal
OVCAR-5 ovarian = tested on: OVCAR-5 ovarian
OVCAR-8 ovarian = tested on: OVCAR-8 ovarian
NCI-H460 lung = tested on: NCI-H460 lung
ACHN renal = tested on: ACHN renal
A549 NSCLC = tested on: A549 NSCLC
HL-60(TB) leukemia = tested on: HL-60(TB) leukemia
T-47D breast = tested on: T-47D breast
NCI-H522 lung = tested on: NCI-H522 lung
OVCAR-3 ovarian = tested on: OVCAR-3 ovarian
BT-549 breast = tested on: BT-549 breast
UACC-257 melanoma = tested on: UACC-257 melanoma
DU-145 prostate = tested on: DU-145 prostate
SN12C renal = tested on: SN12C renal
CAKI-1 renal = tested on: CAKI-1 renal
HOP-62 NSCLC = tested on: HOP-62 NSCLC
OVCAR-4 ovarian = tested on: OVCAR-4 ovarian
NCI-H226 lung = tested on: NCI-H226 lung
IGROV1 ovarian = tested on: IGROV1 ovarian
NCI/ADR-RES ovarian = tested on: NCI/ADR-RES ovarian
M14 melanoma = tested on: M14 melanoma
SF-295 CNS = tested on: SF-295 CNS
SK-MEL-2 melanoma = tested on: SK-MEL-2 melanoma
SF-268 CNS = tested on: SF-268 CNS
KM12 colon = tested on: KM12 colon
TK-10 renal = tested on: TK-10 renal
UACC-62 melanoma = tested on: UACC-62 melanoma
COLO 205 colon = tested on: COLO 205 colon
MALME-3M melanoma = tested on: MALME-3M melanoma
LOX IMVI melanoma = tested on: LOX IMVI melanoma
HCT-15 colon = tested on: HCT-15 colon
SK-OV-3 ovarian = tested on: SK-OV-3 ovarian
EKVX NSCLC = tested on: EKVX NSCLC
SW-620 colon = tested on: SW-620 colon
NCI-H23 lung = tested on: NCI-H23 lung
HS 578T breast = tested on: HS 578T breast
HCT-116 colon = tested on: HCT-116 colon
SK-MEL-28 melanoma = tested on: SK-MEL-28 melanoma
CCRF-CEM leukemia = tested on: CCRF-CEM leukemia
SF-539 CNS = tested on: SF-539 CNS
SR leukemia = tested on: SR leukemia

Work on `O=C(O)C(=O)/C=C(\O)c1ccc(Br)cc1` yielded a TGI (SK-MEL-5 melanoma) greater than 100 µM, a TGI (MOLT-4 leukemia) greater than 100 µM and a TGI (786-0 renal) greater than 100 µM. For the same molecule, the TGI (A498 renal) was greater than 100 µM, the TGI (MDA-N) was greater than 100 µM and the TGI (HT29 colon) was greater than 100 µM. For the same molecule, the TGI (SNB-19 CNS) was greater than 100 µM, the TGI (RPMI-8226 leukemia) was greater than 100 µM and the TGI (RXF 393 renal) was greater than 100 µM. It also gave a TGI (PC-3 prostate) greater than 100 µM, a TGI (MDA-MB-231 breast) greater than 100 µM and a TGI (U251 CNS) greater than 100 µM. For the same molecule, the TGI (HCC-2998 colon) was greater than 100 µM, the TGI (K-562 leukemia) was greater than 100 µM and the TGI (SNB-75 CNS) was greater than 100 µM. The TGI (HOP-92 NSCLC) was greater than 100 µM, the TGI (MDA-MB-435) was greater than 100 µM and the TGI (MCF7 breast) was greater than 100 µM. It also gave a TGI (UO-31 renal) greater than 100 µM, a TGI (OVCAR-5 ovarian) greater than 100 µM and a TGI (OVCAR-8 ovarian) greater than 100 µM. The TGI (NCI-H460 lung) was greater than 100 µM, the TGI (ACHN renal) was greater than 100 µM and the TGI (A549 NSCLC) was greater than 100 µM. It also gave a TGI (HL-60(TB) leukemia) greater than 100 µM, a TGI (T-47D breast) greater than 100 µM and a TGI (NCI-H522 lung) greater than 100 µM. For the same molecule, the TGI (OVCAR-3 ovarian) was greater than 100 µM, the TGI (BT-549 breast) was greater than 100 µM and the TGI (UACC-257 melanoma) was greater than 100 µM. The TGI (DU-145 prostate) was greater than 100 µM, the TGI (SN12C renal) was greater than 100 µM and the TGI (CAKI-1 renal) was greater than 100 µM. For the same molecule, the TGI (HOP-62 NSCLC) was greater than 100 µM, the TGI (OVCAR-4 ovarian) was greater than 100 µM and the TGI (NCI-H226 lung) was greater than 100 µM. For the same molecule, the TGI (IGROV1 ovarian) was greater than 100 µM, the TGI (NCI/ADR-RES ovarian) was greater than 100 µM and the TGI (M14 melanoma) was greater than 100 µM. It also gave a TGI (SF-295 CNS) greater than 100 µM, a TGI (SK-MEL-2 melanoma) greater than 100 µM and a TGI (SF-268 CNS) greater than 100 µM. The TGI (KM12 colon) was greater than 100 µM, the TGI (TK-10 renal) was greater than 100 µM and the TGI (UACC-62 melanoma) was greater than 100 µM. For the same molecule, the TGI (COLO 205 colon) was greater than 100 µM, the TGI (MALME-3M melanoma) was greater than 100 µM and the TGI (LOX IMVI melanoma) was greater than 100 µM. For the same molecule, the TGI (HCT-15 colon) was greater than 100 µM, the TGI (SK-OV-3 ovarian) was greater than 100 µM and the TGI (EKVX NSCLC) was 82.1 µM. The TGI (SW-620 colon) was greater than 100 µM, the TGI (NCI-H23 lung) was greater than 100 µM and the TGI (HS 578T breast) was greater than 100 µM. It also gave a TGI (HCT-116 colon) greater than 100 µM, a TGI (SK-MEL-28 melanoma) greater than 100 µM and a TGI (CCRF-CEM leukemia) greater than 100 µM.
In the case of `CCOC(=O)[C@@H]1ON2OC(OC3CCCC3(c3ccccc3)c3ccccc3)C(OC(C)=O)[C@H]3OC(=O)[C@@H]1C32` (stereo partly drawn), the TGI (SK-MEL-5 melanoma) is reported as greater than 100 µM, the TGI (MOLT-4 leukemia) is reported as greater than 100 µM and the TGI (786-0 renal) is reported as greater than 100 µM. The TGI (SF-539 CNS) was greater than 100 µM, the TGI (A498 renal) was greater than 100 µM and the TGI (MDA-N) was greater than 100 µM. For the same molecule, the TGI (HT29 colon) was greater than 100 µM, the TGI (SNB-19 CNS) was greater than 100 µM and the TGI (RPMI-8226 leukemia) was greater than 100 µM. It also gave a TGI (RXF 393 renal) of 84.2 µM, a TGI (PC-3 prostate) greater than 100 µM and a TGI (MDA-MB-231 breast) greater than 100 µM. It also gave a TGI (U251 CNS) greater than 100 µM, a TGI (HCC-2998 colon) greater than 100 µM and a TGI (K-562 leukemia) greater than 100 µM. For the same molecule, the TGI (SNB-75 CNS) was greater than 100 µM, the TGI (HOP-92 NSCLC) was greater than 100 µM and the TGI (MDA-MB-435) was greater than 100 µM. It also gave a TGI (SR leukemia) greater than 100 µM, a TGI (MCF7 breast) of 50.4 µM and a TGI (UO-31 renal) greater than 100 µM. The TGI (OVCAR-8 ovarian) was greater than 100 µM, the TGI (NCI-H460 lung) was greater than 100 µM and the TGI (ACHN renal) was 73.2 µM. It also gave a TGI (A549 NSCLC) greater than 100 µM, a TGI (HL-60(TB) leukemia) greater than 100 µM and a TGI (T-47D breast) greater than 100 µM. For the same molecule, the TGI (NCI-H522 lung) was 72.2 µM, the TGI (OVCAR-3 ovarian) was greater than 100 µM and the TGI (BT-549 breast) was greater than 100 µM. It also gave a TGI (UACC-257 melanoma) greater than 100 µM, a TGI (DU-145 prostate) greater than 100 µM and a TGI (SN12C renal) greater than 100 µM. For the same molecule, the TGI (CAKI-1 renal) was greater than 100 µM, the TGI (HOP-62 NSCLC) was greater than 100 µM and the TGI (NCI-H226 lung) was greater than 100 µM. For the same molecule, the TGI (IGROV1 ovarian) was greater than 100 µM, the TGI (NCI/ADR-RES ovarian) was greater than 100 µM and the TGI (M14 melanoma) was greater than 100 µM. It also gave a TGI (SF-295 CNS) greater than 100 µM, a TGI (SK-MEL-2 melanoma) greater than 100 µM and a TGI (SF-268 CNS) greater than 100 µM. It also gave a TGI (KM12 colon) greater than 100 µM, a TGI (TK-10 renal) greater than 100 µM and a TGI (UACC-62 melanoma) greater than 100 µM. It also gave a TGI (COLO 205 colon) greater than 100 µM, a TGI (LOX IMVI melanoma) of 60.3 µM and a TGI (HCT-15 colon) greater than 100 µM. It also gave a TGI (SK-OV-3 ovarian) greater than 100 µM, a TGI (EKVX NSCLC) greater than 100 µM and a TGI (SW-620 colon) greater than 100 µM. For the same molecule, the TGI (NCI-H23 lung) was greater than 100 µM, the TGI (HS 578T breast) was greater than 100 µM and the TGI (HCT-116 colon) was greater than 100 µM. The TGI (SK-MEL-28 melanoma) was greater than 100 µM and the TGI (CCRF-CEM leukemia) was greater than 100 µM.
